One may read the melting point as the temperature of the solid-liquid transition. `CN1CCC(Oc2ccc([N+](=O)[O-])cc2)(c2ccccc2)CC1` gave a melting point of 136 to 138 °C.

In turn, `CCOC(=O)CNC(=O)Oc1c(C)n(C)ccc1=O` displayed a melting point of 132 to 135 °C.

With `O=C(OCN1C(=O)c2ccccc2S1(=O)=O)c1c(Cl)cncc1Cl`, the melting point is 159 to 160 °C.

In turn, `Cc1nc(C)c(Cl)c(NCc2ccc(OCCn3c([N+](=O)[O-])cnc3C)cn2)n1` returned a melting point of 182 to 184 °C.

`CC(C)Cn1c(=O)n(C)c(=O)c2cc(Cn3cnc4ccccc43)sc21` showed a melting point of 198 to 199 °C.

With `Cn1cc(C2=C(c3c4n(c5ccccc35)CCN(C(=O)Oc3ccccc3)C4)C(=O)NC2=O)c2ccccc21`, the melting point fell in the range of 160 to 165 °C.

As to `O=S1(=O)NCN(C2CC2)c2ccc(O)cc21`, the melting point lay within 187 to 189 °C.

`N#Cc1ccc(OS(N)(=O)=O)cc1` showed a melting point of 154 to 156 °C.

Molecule `CCCCOC(=O)c1ccc(C(=O)NNC(=O)c2ccc(C(=O)OCCCC)cc2)cc1` returned a melting point of 166 to 168 °C.

On to `COc1cccc(-c2nc(Cl)nc(Nc3ccc(O)cc3)n2)c1`, for which the melting point came to 164 °C.

In the case of `COc1ccc2c(c1OC)CCCC2c1c[nH]cn1` (stereo not given), the melting point turned out to be 160 °C.

`COc1ccc(CCN(C)CCc2ccc(NC(=O)c3cccc4c(=O)c5ccccc5[nH]c34)cc2)cc1`: the melting point was determined as 179 °C.

Molecule `COc1ccc(C(=O)c2cc(Cl)ccc2N)c(O)c1OC` gave a melting point of 112 to 115 °C.

`O=S(=O)(Cl)c1ccc(Cl)c(CBr)c1Cl` came in with a melting point of 90 to 92 °C.

On to `CCCCNC(=O)Nc1c(N)cccc1C(=O)NCC1CCN(C(c2ccccc2)c2ccccc2)CC1`, for which the melting point lay in the range of 212 to 213 °C.

As for `CC1(c2ccccc2)C(=O)Nc2cc(Cl)cc(Cl)c2C1=O` (stereo not given), the melting point was 222 to 225 °C.

With `CCOC(O)(OCC)C(Cc1ccc2ccccc2c1)NC(=O)OC(C)(C)C` (stereo not given), the melting point is 87 °C.

Molecule `COc1cc(-c2oc3c(OC)cc(/C=C/CO)cc3c2C)ccc1O` showed a melting point of 180 to 183 °C.

`CCN(CC)C(=O)n1ccc(S(=O)(=O)c2cccc(Cl)c2Cl)n1` gave a melting point of 60 to 61.5 °C.

In the case of `CCOC(=O)c1cc2cc(OCCCOC)cc(N(C)S(=O)(=O)c3ccccn3)c2[nH]1`, the melting point lay in the range of 98 to 99 °C.

In turn, `O=[N+]([O-])c1ccc(N(CCO)CCO)cc1F` gave a melting point of 99 to 101 °C.

Molecule `CCP(=O)(CC)Cc1ccc(NC(=O)/C=C/c2cccc(-c3ccc(C)cc3)c2)cc1` showed a melting point of 197 to 198 °C.

In the case of `CCCCCC(=O)C=Cc1ccc(CC(=O)O)s1`, the melting point worked out at 51 °C.

With `O=C(O)Cc1ccc2c3c(ccc2c1)OCC3`, the melting point is 181 to 183 °C.

For `CCCc1c(OCCCCCc2ccc3cc(OC)c(OC)cc3c2)ccc(C(=O)O)c1O`, the melting point fell in the range of 135 to 137 °C.

`N#Cc1cnn(-c2ccc(Cl)c(Cl)c2Cl)c1N1CCCC1=O` showed a melting point of 160 to 161 °C.

With `COc1ccc(CSc2nnc(-c3ccc4nccn4c3)o2)cc1C#N`, the melting point is 211 to 212 °C.

For `O=c1c2ccc(OCCCN3CCN(Cc4ccc(Cl)cc4)CC3)cc2oc2nn[nH]c12`, the melting point was 215 to 216 °C.

Regarding `O=c1[nH]c(=S)[nH]c2ccnn12`, the melting point turned out to be 295 °C.

Take `CCc1cc(Oc2ccc([C@H](O)[C@@H](Cc3cccc(OC(F)(F)C(F)F)c3)NC(=O)c3cccc4c3C=CCCC4)cc2)ccc1Cl` (racemic): the melting point lay within 116 to 117 °C.

On to `CC(C)CNCc1cccc(OCCCNc2nc(N)nn2C)c1`, for which the melting point was in the range of 89 to 90 °C.

Turning to `CN(c1cccc2cc(C3=NCC(C)(CN4CCOCC4)S3)[nH]c12)S(=O)(=O)c1cccs1` (stereo not given), the melting point fell in the range of 146 to 147 °C.

Molecule `O=C1C(=Cc2ccccc2)CCCC1c1ccccc1` (stereo not given) showed a melting point of 75 to 78 °C.

For the molecule `Cc1nc2c3c(c(C(=O)N4CC4)cc2n1C)CCC(c1ccccc1)O3` (stereo not given), the melting point lay in the range of 201 to 204 °C.

The molecule `CN1C(=O)NC(=O)C1(C)O` (stereo not given) showed a melting point of 122 to 123 °C.

Take `O=C1C=CC(=O)c2cc(C(F)(F)F)ccc21`: the melting point lay within 80 to 85 °C.

Turning to `C[Si](C)(C)Sc1nnnn1-c1ccccc1`, the melting point fell in the range of 67 to 68 °C.

As to `O=CNNc1ccc(NC(=S)NCc2ccccc2)cc1`, the melting point fell in the range of 152 to 154 °C.

For the molecule `COc1nccc2cc(S(N)(=O)=O)oc12`, the melting point fell in the range of 204 to 206 °C.

`Cc1ccc(C2=CCN(CCCn3c(=O)[nH]c4cccc(C)c4c3=O)CC2)cc1` returned a melting point of 165 to 170 °C.

Regarding `COc1cc(CCCCC2OC(=O)NC2=O)ccc1O` (stereo not given), the melting point is 115 to 116 °C.

For `CCN1C[C@@H](SCc2ccc(OC)cc2)C[C@H]1C(=O)NC`, the melting point lay in the range of 68 to 70 °C.

For `COC(=O)c1cccc(-c2nnc(-c3ccccc3N)cc2CCCO)c1`, the melting point was determined as 141 °C.

`Cc1cc(OCCO)c2ccccc2c1O`: the melting point fell in the range of 136 to 137 °C.

In turn, `COc1cccc(-c2nc(C(=O)OC(C)(C)C)c(-c3ccncc3)[nH]2)c1` gave a melting point of 197 to 199 °C.

`CC(C)c1nc2cc(NC(=O)c3c(C(=O)N4CCC4)cnn3C)ccn2n1` had a melting point of 226 to 227 °C.

`CCCc1ccc2c(c1)C(=O)N(c1ccc(C(C)C(=O)O)cc1)C2` (stereo not given) returned a melting point of 175 to 177 °C.

`CCCCNC(=O)NS(=O)(=O)c1ccc(CCNC(=O)N2CCC(C)CC2=O)cc1` (stereo not given) displayed a melting point of 159 to 161 °C.

In the case of `COCCOC(=O)c1cncn1C1CCCc2ccccc21` (stereo not given), the melting point was found to be 66.8 °C.

As to `COC(=O)c1ccc(OCc2ccc3ccccc3n2)cc1C1(c2ccccc2)CC2CCC1C2` (stereo not given), the melting point was in the range of 106 to 107 °C.

In turn, `N#CCOc1ccc(-c2cc(O)c(SCCc3ccccc3)c(=O)o2)cc1` yielded a melting point of 157 to 159 °C.

`C=CCn1cc(C(=O)O)c(=O)c2cc(F)c(N3CCNCC3)cc21` gave a melting point of 136 °C.

As to `Cn1c(=O)c(-c2ccc(Cl)cc2Cl)cc2c3cc(-c4ccno4)ccc3n(C)c21`, the melting point was in the range of 241 to 242 °C.

`CN(Cc1ccc(NC(=O)C2=Cc3cc(-c4ccc(Cl)s4)ccc3S(=O)(=O)CC2)cc1)C1CCOCC1`: the melting point was in the range of 221 to 222 °C.

`FC(F)(F)c1cccc(C2=CCN(CCc3ccc4cc[nH]c4c3)CC2)c1` returned a melting point of 168 to 169 °C.

Consider `O=C(c1ccc(Cl)cc1)c1ccc(CS(=O)(=O)C(F)F)cc1`, for which the melting point lay in the range of 154 to 157 °C.

Turning to `COCCNc1nc(N)nc(-c2ccccc2)c1-c1ccc(=O)n(C(C)C)n1`, the melting point is 168 to 170 °C.

`COc1ccc(CNc2n[nH]c3ncnc(Nc4cccc(Cl)c4)c23)cc1OC` returned a melting point of 228 to 232 °C.

For the molecule `CCN(CC1Cc2ccccc2N1CC)C(=N)N` (stereo not given), the melting point amounted to 230 °C.

For `CCCCNS(=O)(=O)CC(O)C(O)C(CC1CCCCC1)NC(=O)CCC(C)C` (stereo not given), the melting point was 88 to 92 °C.

Molecule `C#CCn1c(=O)c2c(nc(C#Cc3ccc(OC)c(OC)c3)n2C)n(CC)c1=O` showed a melting point of 222 °C.

`CN1CCSC1=C[N+](=O)[O-]` registered a melting point of 169 to 171 °C.

`Cc1cccc(Cl)c1NC(=O)Nc1cc(N[C@H]2CC[C@H](O)CC2)ncn1`: the melting point was in the range of 149 to 152 °C.

`CSC(=S)N1C(CO)Cc2c([nH]c3ccccc23)C1C` (stereo not given) displayed a melting point of 153 to 156 °C.

Regarding `CC1(C)CCc2c(-c3ccco3)nc3sc4c(NCc5ccccn5)ncnc4c3c2C1`, the melting point is 233 °C.

For the molecule `CCOCCNC(=O)OCCCc1ccc(OCCOC)cc1Oc1ncc(C(F)(F)F)cc1Cl`, the melting point fell in the range of 66 to 68 °C.

Take `O=C(O)C(Cc1ccccc1)Oc1ccc2cc(-c3csc(-c4ccccc4)n3)ccc2c1` (stereo not given): the melting point was in the range of 154 to 160 °C.

With `O=[N+]([O-])c1cnc(Nc2ccccc2F)c([N+](=O)[O-])c1`, the melting point was 159 to 161 °C.

`O=S1(=O)c2ccccc2N(c2ccccc2O)c2ccccc21`: the melting point is 282 to 287 °C.

`CC(=O)CCn1nc(C)c(-c2ccc3c(c2)NC(=O)CO3)c1-c1ccc(F)cc1` gave a melting point of 148 to 151 °C.

`CSC1=Nc2ccc(C(=O)c3cccnc3)cc2CN1` had a melting point of 156 °C.

As to `CC(=O)NCCCCc1ccc(C(=O)CC(C)C#N)cc1` (stereo not given), the melting point is 89 to 90 °C.

Molecule `O=C1c2sccc2-n2cnc(Cl)c2[C@@H]2CCCN12` registered a melting point of 180 to 183 °C.

Molecule `COc1cc(OC)nc(NC(=O)NS(=O)(=O)Oc2ccccc2-c2nnco2)n1` had a melting point of 161 to 164 °C.

For the molecule `O=C(NCCBr)C1=C(C(=O)Nc2cc(OC3CCCC3)c(Cl)cc2F)CCCC1`, the melting point lay in the range of 140 to 142 °C.

The molecule `CC(C)Cn1c(CN(C)C(N)=O)nc2c(N)nc3ccccc3c21` came in with a melting point of 223 to 225 °C.

With `COc1ccc2c(c1)Oc1c(ccc(OC)c1C(OC)OC)C2(C)C`, the melting point lay in the range of 60 to 62 °C.

Regarding `Cc1ccnc(Nc2nc(-c3cc(-c4ccc(Cl)cc4)no3)cs2)c1`, the melting point is 209 to 211 °C.

As for `COc1ccc(-n2nc(C)cc2-c2ccccc2)cc1`, the melting point amounted to 110 °C.

`N#Cc1ccc2nc(CCl)[nH]c2c1` returned a melting point of 144 to 146 °C.

For the molecule `CN(CCc1ccc(NC(=N)C(F)(F)F)cc1)Cc1ccccc1`, the melting point lay within 105 to 107 °C.

Molecule `COc1cc2c(cc1-c1ccccc1F)NC(=O)CC(c1ccnc(C#N)c1)=N2` had a melting point of 240 to 242 °C.

For `Nc1c(Cl)cc(C(O)CNCCCCCCOCCc2ccccc2)cc1Cl` (stereo not given), the melting point was 60 to 63 °C.

In the case of `Cc1cc(C)c(C(=O)P(=O)(Cc2ccccc2)c2ccccc2)c(C)c1` (stereo not given), the melting point lay in the range of 113 to 114 °C.

For `O=C(O)C1=CS[C@@H]2/C(=C\c3cc4c(s3)CCN(Cc3ccccc3)C4)C(=O)N12`, the melting point was 198 °C.

Take `COc1cc(-c2ncn(C)c2-c2scc(OC)c2OC)cc(OC)c1OC`: the melting point is 142 to 143 °C.

In the case of `Cc1cc(-n2cnc(CO)c2)ccc1C(C)C`, the melting point was in the range of 98 to 102 °C.

On to `COc1ccc(-n2cc(/C=C(\C#N)C(=O)NS(C)(=O)=O)c(-c3ccc(Cl)c(F)c3)n2)cc1Cl`, for which the melting point was 280 to 282 °C.

Regarding `CC(C)(C)c1ccc(OCCCN2CCC(C(O)(c3ccc(F)cc3)c3ccc(F)cc3)CC2)cc1`, the melting point lay within 126 to 127 °C.

`CCCCc1ccc(CC(Cl)C(=O)O)cc1` (stereo not given) displayed a melting point of 52.7 to 53.6 °C.

The values are drawn from a melting point compilation (Tetko et al.; mined from patent text by program, amines drawn as free bases though some values may be those of a salt).
